Results: patent US11814376B2, “Hepatitis b core protein modulators” (Assembly Biosciences, Inc., priority 2015, dated 2023)

Experiments:
[1] = test system: HBV viral load in AD38 cells; assay: Viral load production in AD38 cells, quantitative PCR of the core sequence in supernatant; type: cell-based; details: Hepatitis B virus, 144 h, 10 μM compound, 6 days at 37° C., supernatant qPCR, relative to DMSO control; read-out: AD38 Viral Load (%) (VL with cmpd/VL in DMSO control) at 10 μM
AD38 cells = assay: Viability of AD38 cells (Promega CellTiter-Glo); type: cell-based; details: 10 μM compound, 6 days, CellTiter-Glo luminescence normalized to DMSO control (100%)
Summary of the method: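 AD38 cells were seeded at 50,000/well on collagen-coated plates and treated with compound added as a 10× solution in 10% DMSO for 6 days at 37° C. Viability was measured by CellTiter-Glo luminescence in tetracycline-free medium with 2% FBS and 1% DMSO, and expressed as percent of DMSO control.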

| SMILES | activity at 10 µM [1] [%] | AD38 Viability Normalized Result (cmpd/DMSO %) at 10 μM (AD38 cells) [%] |
| --- | --- | --- |
| COc1ncc(-c2ncc(CNC(=O)c3ccc4c(c3)NC(=O)c3ccccc3S4(=O)=O)s2)cn1 [1671-A, N-((2-(2-methoxypyrimidin-5-yl)thiazol-5-yl)methyl)-11-oxo-10, 11-dihydrodibenzo [b, f] [1, 4] thiazepine-8-carboxamide 5,5-dioxide] | 0.7 | 111 |
| CCc1cc2c(cc1C(=O)NCc1cnc(C(F)(F)F)s1)NC(=O)c1ccccc1S2(=O)=O [compound 11041] | 47.4 | 94 |
| O=C(O)COc1ccc(-c2ncc(CNC(=O)c3ccc4c(c3)NC(=O)c3ccccc3O4)s2)cc1 [compound 1620, 2-(4-(5-((11-oxo-10, 11-dihydrodibenzo [b, f] [1, 4]oxazepine-8-carboxamido)methyl)thiazol-2-yl)phenoxy) acetic acid] | 41.9 | 103 |
| CC(C)(C)NCCCCc1ccc(-c2ncc(CNC(=O)c3ccc4c(c3)NC(=O)c3ccccc3S4(=O)=O)s2)cc1 [compound 11054] | 14.1 | 102 |
| O=C(NCc1cnc(-c2ccc3ncccc3c2)s1)c1ccc2c(c1)NC(=O)c1ccccc1O2 [compound 1831] | 3.8 | 112 |
| CC(CCN(C)C)Oc1ccc(-c2ncc(CNC(=O)c3ccc4c(c3)NC(=O)c3ccccc3S4(=O)=O)s2)cc1 (stereo not drawn) [compound 11080] | 1.4 | 84 |
| O=C(NCc1cnc(-c2ccc(OCCCN3CCC(C(=O)O)C3)cc2)s1)c1ccc2c(c1)NC(=O)c1ccccc1S2(=O)=O (stereo not drawn) [compound 11107, 1-(3-(4-(5-((5,5-dioxido-11-oxo-10, 11-dihydrodibenzo [b, f] [1, 4]thiazepine-8-carboxamido)methyl)thiazol-2-yl)phenoxy)propyl) pyrrolidine-3-carboxylic acid] | 6.4 | 96 |
| O=C(NCc1scnc1C(F)(F)F)c1ccc2c(c1)NC(=O)c1ccccc1S2 [compound 1431] | 5.5 | 103 |
| O=C(NCc1cnc(CN2CCOCC2)s1)c1ccc2c(c1)NC(=O)c1ccccc1S2(=O)=O [compound 1927] | 4.7 | 92 |
| CCOC(=O)/C=C/c1cnn(-c2ncc(CNC(=O)c3ccc4c(c3)NC(=O)c3ccccc3S4(=O)=O)s2)c1 [compound 11118] | 1.9 | 95 |
| O=C(NCc1cnc(C(F)(F)F)s1)c1ccc2c(c1)NC(=O)c1ccccc1N2CCO [compound 11078] | 45.7 | 96 |
| CN(C)CCC#Cc1ccc(-c2ncc(CNC(=O)c3ccc4c(c3)NC(=O)c3ccccc3S4(=O)=O)s2)cc1 [compound 11003, N-((2-(4-(4-(dimethylamino)but-1-yn-1-yl)phenyl)thiazol-5-yl)methyl)-11-oxo-10, 11-dihydrodibenzo [b, f] [1, 4] thiazepine-8-carboxamide 5,5-dioxide] | 0.3 | 97 |
| CN(C)CCCOc1ncc(CNC(=O)c2ccc3c(c2)NC(=O)c2ccccc2S3(=O)=O)s1 [compound 1680, N-((2-(3-(dimethylamino)propoxy)thiazol-5-yl)methyl)-11-oxo-10, 11-dihydrodibenzo [b, f] [1, 4] thiazepine-8-carboxamide 5,5-dioxide] | 15 | 94 |
| CC(C)N(C)CCCCc1ccc(-c2ncc(CNC(=O)c3ccc4c(c3)NC(=O)c3ccccc3S4(=O)=O)s2)cc1 [compound 11093] | 4.6 | 102 |
| N#Cc1ccc(-c2ncc(CNC(=O)c3cc4c(cc3Cl)Oc3ccccc3C(=O)N4)s2)cc1 [compound 1913] | 68.1 | 111 |
| CN1c2ccc(C(=O)NCc3cnc(-c4ccc(C#N)cc4)s3)cc2NC(=O)c2ccccc21 [compound 1974] | 15.3 | 103 |
| O=C1Cc2cccc(-c3ncc(CNC(=O)c4ccc5c(c4)NC(=O)c4ccccc4S5(=O)=O)s3)c2N1 [compound 1930] | 23.8 | 91 |
| O=C(NCc1cnc(-c2ccc(OCCCN3CCC3)cc2)s1)c1ccc2c(c1)NC(=O)c1ccccc1S2(=O)=O [compound 11105] | 1.6 | 95 |

| SMILES | activity at 10 µM [1] [%] | AD38 Viability Normalized Result (cmpd/DMSO %) at 10 μM (AD38 cells) [%] |
| --- | --- | --- |
| O=C(NCc1cnc(-c2ccc(OCCCN(CCO)CCO)cc2)s1)c1ccc2c(c1)NC(=O)c1ccccc1S2(=O)=O [compound 1998] | 3.7 | 99 |
| CN(C)CCOc1ncc(CNC(=O)c2ccc3c(c2)NC(=O)c2ccccc2S3(=O)=O)s1 [compound 1586, N-((2-(2-(dimethylamino)ethoxy)thiazol-5-yl)methyl)-11-oxo-10, 11-dihydrodibenzo [b, f] [1, 4] thiazepine-8-carboxamide 5,5-dioxide] | 27.9 | 83 |
| COc1ccc(Cc2ncc(CNC(=O)c3ccc4c(c3)NC(=O)c3ccccc3O4)s2)cc1 [1835-A, N-((2-(4-methoxybenzyl)thiazol-5-yl)methyl)-11-oxo-10, 11-dihydrodibenzo [b, f] [1, 4] oxazepine-8-carboxamide] | 0.3 | 89 |
| COc1ccc(-c2ncc(CNC(=O)c3ccc4c(c3)NC(=O)c3ccccc3S4(=O)=O)s2)cc1C [1804-A, N-((2-(4-methoxy-3-methylphenyl)thiazol-5-yl)methyl)-11-oxo-10, 11-dihydrodibenzo [b, f] [1, 4] thiazepine-8-carboxamide 5,5-dioxide] | 6.6 | 90 |
| CC(C)CN1c2ccc(C(=O)NCc3cnc(-c4ccc(C#N)cc4F)s3)cc2NC(=O)c2ccccc21 [compound 11044] | 5.1 | 124 |
| O=C(NCc1cnc(-c2cnc(O)nc2)s1)c1ccc2c(c1)NC(=O)c1ccccc1S2(=O)=O [compound 1671, N-((2-(2-hydroxypyrimidin-5-yl)thiazol-5-yl)methyl)-11-oxo-10, 11-dihydrodibenzo [b, f] [1, 4] thiazepine-8-carboxamide 5,5-dioxide] | 18.2 | 100 |
| O=C(NCc1cnc(-c2ccc(SCCCN3CCCCC3)cc2)s1)c1ccc2c(c1)NC(=O)c1ccccc1S2(=O)=O [compound 11065, 11-oxo-N-((2-(4-((3-(piperidin-1-yl)propyl)thio)phenyl)thiazol-5-yl)methyl)-10, 11-dihydrodibenzo [b, f] [1, 4] thiazepine-8-carboxamide 5,5-dioxide] | 1.2 | 66 |
| CN(CCCCc1ccc(-c2ncc(CNC(=O)c3ccc4c(c3)NC(=O)c3ccccc3S4(=O)=O)s2)cc1)C1CC1 [compound 11094] | 0.6 | 94 |
| CN1CCC[C@@H]1COc1ccc(-c2ncc(CNC(=O)c3ccc4c(c3)NC(=O)c3ccccc3S4(=O)=O)s2)cc1 [compound 11131, (R)—N-((2-(4-((1-methylpyrrolidin-2-yl)methoxy)phenyl)thiazol-5-yl)methyl)-11-oxo-10,11-dihydrodibenzo [b, f] [1, 4] thiazepine-8-carboxamide 5,5-dioxide] | 2 | 88 |
| CC(C)c1ncc(CNC(=O)c2ccc3c(c2)NC(=O)c2ccccc2O3)s1 [compound 1559] | 0.7 | 87 |
| N#Cc1ccc(-c2ncc(CNC(=O)c3ccc4c(c3)NC(=O)c3cccc(F)c3S4(=O)=O)s2)cc1 [compound 1904] | 0.5 | 89 |
| CN(C)c1ncc(-c2ncc(CNC(=O)c3ccc4c(c3)NC(=O)c3ccccc3O4)s2)cn1 [compound 1711] | 6.5 | 96 |
| O=C(NCc1cnc(C(F)(F)F)s1)c1ccc2c(c1)NC(=O)c1ccccc1S2(=O)=O [compound 1553] | 0.5 | 107 |
| O=C(NCc1cnc(-n2ccc(F)n2)s1)c1ccc2c(c1)NC(=O)c1ccccc1S2(=O)=O [compound 11045] | 0.6 | 94 |
| O=C(NCc1cnc(-c2cnc(O)nc2)s1)c1ccc2c(c1)NC(=O)c1ccccc1O2 [compound 1709, N-((2-(2-hydroxypyrimidin-5-yl)thiazol-5-yl)methyl)-11-oxo-10, 11-dihydrodibenzo [b, f] [1, 4] oxazepine-8-carboxamide] | 51.1 | 94 |
| O=C(NCc1cnc(-c2cscn2)s1)c1ccc2c(c1)NC(=O)c1ccccc1S2(=O)=O [compound 11049] | 0.8 | 89 |
| COc1cccc(Cc2ncc(CNC(=O)c3ccc4c(c3)NC(=O)c3ccccc3S4(=O)=O)s2)c1 [compound 1822, N-((2-(3-methoxybenzyl)thiazol-5-yl)methyl)-11-oxo-10, 11-dihydrodibenzo [b, f] [1, 4] thiazepine-8-carboxamide 5,5-dioxide] | 1.5 | 89 |
| CN(C)CC1(COc2ccc(-c3ncc(CNC(=O)c4ccc5c(c4)NC(=O)c4ccccc4S5(=O)=O)s3)cc2)CCC1 [compound 11113] | 4.9 | 92 |
